Patent US20230271950A1, “ANTIBACTERIAL PICOLINAMIDE COMPOUNDS” (University of Notre Dame Du Lac, priority 2020, published 2023)
In brackets after ≈: the same amount, converted by molar mass. Read-outs that look alike come from different tables or passages of the source.

How the values were obtained:
HeLa cells = assay: XTT cytotoxicity assay with HeLa cells; format: cell-based; conditions: Homo sapiens, Table 6
Method: XTT assay. Cytotoxicity assays were performed in triplicate against HeLa cells (ATCC CCL-2). The IC50 values were calculated by nonlinear regression with GraphPad Prism 5 (San Diego, Calif.).
XTT assay. XTT assays were performed with HeLa cells (ATCC CCL-2) in triplicate, as previously described (Lancet 2008, 371, 1486). IC50 values were determined by nonlinear regression using GraphPad Prism 5 (San Diego, Calif.).

E. faecium NCTC7171 = assay: MIC against E. faecium; format: cell-based, Enterococcus faecium; conditions: E. faecium NCTC 7171; for MIC: Enterococcus faecium, NCTC7171, Table 10, unit inferred, read-out: Activity (MIC) against E. faecium
S. aureus ATCC29213 = assay: MIC against MSSA; format: cell-based, Staphylococcus aureus; conditions: MSSA ATCC 29213; for MIC: Staphylococcus aureus, Table 10, unit inferred, read-out: Activity (MIC) against S. aureus
MRSA (NRS70, NRS119) = assay: MIC against MRSA strains; format: cell-based, Staphylococcus aureus; conditions: NRS70 strain; for MIC: Staphylococcus aureus, read-out: MIC MRSA
C. difficile = assay: MIC by broth microdilution against C. difficile strains; format: cell-based, Clostridioides difficile; conditions: for MIC: Clostridioides difficile, ATCC43255, ATCC 43255, ribotype 087, read-out: MIC C. difficile; for Selectivity: MIC MRSA/MIC C. difficile, Table 3

SMILES	IC50 (HeLa cells) [µg/mL]	MIC (E. faecium NCTC7171) [µg/mL]	MIC (S. aureus ATCC29213) [µg/mL]	MIC (MRSA (NRS70, NRS119); Table 3 (SAR^2 and SAR^3)) [µg/mL]	MIC (C. difficile; Table 3 (SAR^2 and SAR^3)) [µg/mL]	Selectivity (C. difficile)	MIC MRSA (MRSA (NRS70, NRS119); Table 2 (SAR^1)) [µg/mL]	MIC C. difficile (C. difficile; ATCC 43255, ribotype 087, Table 2 (SAR^1)) [µg/mL]	Activity (MIC) against E. faecium (E. faecium NCTC7171; Table 10, unit not given)	Activity (MIC) against S. aureus (S. aureus ATCC29213; Table 10, unit not given)	MIC (MRSA (NRS70, NRS119); Table 2 (SAR^1)) [µg/mL]	MIC (C. difficile; Table 2 (SAR^1)) [µg/mL]
O=C(O)c1ccc2nc(NC(=O)c3cc(-c4cccc(OC(F)(F)F)c4)ccn3)oc2c1 [Compound 119, 2-(4-(3-(Trifluoromethoxy)phenyl)picolinamido)benzo[d]oxazole-6-carboxylic acid]	124 ± 3.3 (≈ 279 µM)	–	–	–	–	–	–	–	–	–	–	–
O=C(Nc1ncco1)c1cc(Oc2ccc(SC(F)(F)F)cc2)ccn1 [Compound 110, N-(Oxazol-2-yl)-4-(4-((trifluoromethyl)thio)phenoxy)picolinamide]	91.6 ± 1.3 (≈ 240 µM)	≥ 128	≥ 128	–	–	–	–	–	–	–	–	–
O=C(Nc1ncco1)c1ccnc(-c2cccc(C(F)(F)F)c2)c1 [Compound 45, N-(Oxazol-2-yl)-2-(3-(trifluoromethyl)phenyl)isonicotinamide]	–	1 (≈ 3 µM)	0.25 (≈ 0.75 µM)	0.25 (≈ 0.75 µM)	0.25 (≈ 0.75 µM)	1	–	–	–	–	–	–
O=C(Nc1ncco1)c1ccnc(-c2ccc(Cl)c(Cl)c2)c1F [Compound 66, 2-(3,4-Dichlorophenyl)-3-fluoro-N-(oxazol-2-yl)isonicotinamide]	–	1 (≈ 2.84 µM)	0.5 (≈ 1.42 µM)	2 (≈ 5.68 µM)	0.25 (≈ 0.71 µM)	8	–	–	–	–	–	–
COC(=O)c1ccc2oc(NC(=O)c3cc(Oc4ccc(F)c(F)c4)ccn3)nc2c1 [Compound 114, Methyl 2-(4-(3,4-difluorophenoxy)picolinamido)benzo[d]oxazole-5-carboxylate]	53.3 ± 3.6 (≈ 125 µM)	≥ 128	128 (≈ 301 µM)	–	–	–	–	–	–	–	–	–
O=C(O)c1ccc2nc(NC(=O)c3cc(-c4ccc(OC(F)(F)F)cc4)ccn3)oc2c1 [Compound 118, 2-(4-(4-(Trifluoromethoxy)phenyl)picolinamido)benzo[d]oxazole-6-carboxylic acid]	79.9 ± 6.3 (≈ 180 µM)	64 (≈ 144 µM)	8 (≈ 18 µM)	–	–	–	–	–	–	–	–	–
O=C(Nc1ncco1)c1ccnc(-c2ccc(F)c(F)c2)c1 [Compound 35, 2-(3,4-Difluorophenyl)-N-(oxazol-2-yl)isonicotinamide]	–	1 (≈ 3.32 µM)	4 (≈ 13.3 µM)	2 (≈ 6.64 µM)	1 (≈ 3.32 µM)	2	–	–	–	–	–	–
O=C(Nc1ncco1)c1cc(Oc2ccc(OC(F)(F)F)cc2)ccn1 [Compound 109, N-(Oxazol-2-yl)-4-(4-(trifluoromethoxy)phenoxy)picolinamide]	77.4 ± 2.3 (≈ 212 µM)	≥ 128	≥ 128	–	–	–	–	–	–	–	–	–
O=C(Nc1ncco1)c1ccnc(-c2cc(Cl)cc(Cl)c2)c1 [Compound 41, 2-(3,5-Dichlorophenyl)-N-(oxazol-2-yl)isonicotinamide]	–	0.06 (≈ 0.18 µM)	0.06 (≈ 0.18 µM)	0.0625 (≈ 0.187 µM)	0.0625 (≈ 0.187 µM)	1	–	–	–	–	–	–
O=C(Nc1ncco1)c1ccnc(-c2cccc(OC(F)(F)F)c2)c1 [Compound 47, N-(Oxazol-2-yl)-2-(3-(trifluoromethoxy)phenyl)isonicotinamide]	–	1 (≈ 2.86 µM)	0.25 (≈ 0.716 µM)	0.0625 (≈ 0.179 µM)	0.25 (≈ 0.716 µM)	0.25	–	–	–	–	–	–
O=C(Nc1ncco1)c1cc(-c2ccc(F)c(Cl)c2)ccn1 [Compound 91, 4-(3-Chloro-4-fluorophenyl)-N-(oxazol-2-yl)picolinamide]	–	≥ 128	≥ 128	128 (≈ 403 µM)	0.25 (≈ 0.787 µM)	512	–	–	–	–	–	–
CN(C)C(=O)c1cnc(NC(=O)c2ccnc(-c3ccc(Cl)c(Cl)c3)c2)o1 [Compound 28, (2-(3,4-Dichlorophenyl)isonicotinamido)-N,N-dimethyloxazole-5-carboxamide]	–	–	–	–	–	–	4 (≈ 9.87 µM)	0.5 (≈ 1.23 µM)	8	2	–	–
O=C(Nc1ncco1)c1ccnc(-c2cccc(Cl)c2)c1 [Compound 33, 2-(3-Chlorophenyl)-N-(oxazol-2-yl)isonicotinamide]	–	1 (≈ 3.34 µM)	0.5 (≈ 1.67 µM)	0.25 (≈ 0.834 µM)	0.5 (≈ 1.67 µM)	0.5	–	–	–	–	–	–
O=C(Nc1ncco1)c1ccnc(-c2ccc(Br)cc2)c1 [Compound 48, 2-(4-Bromophenyl)-N-(oxazol-2-yl)isonicotinamide]	–	1 (≈ 2.91 µM)	0.5 (≈ 1.45 µM)	0.25 (≈ 0.726 µM)	0.5 (≈ 1.45 µM)	0.5	–	–	–	–	–	–
O=C(Nc1ncco1)c1ccnc(-c2ccc(F)cc2)c1 [Compound 36, 2-(4-Fluorophenyl)-N-(oxazol-2-yl)isonicotinamide]	–	8 (≈ 28.2 µM)	4 (≈ 14.1 µM)	4 (≈ 14.1 µM)	2 (≈ 7.06 µM)	2	–	–	–	–	–	–
O=C(Nc1ncco1)c1ccnc(-c2ccc(OC(F)(F)F)cc2)c1 [Compound 46, N-(Oxazol-2-yl)-2-(4-(trifluoromethoxy)phenyl)isonicotinamide]	–	2 (≈ 5.73 µM)	0.5 (≈ 1.43 µM)	1 (≈ 2.86 µM)	0.125 (≈ 0.358 µM)	8	–	–	–	–	–	–
O=C(Nc1ncco1)c1ccnc(-c2ccc(C(F)(F)F)cc2)c1 [Compound 44, N-(Oxazol-2-yl)-2-(4-(trifluoromethyl)phenyl)isonicotinamide]	–	1 (≈ 3 µM)	0.25 (≈ 0.75 µM)	1 (≈ 3 µM)	0.25 (≈ 0.75 µM)	4	–	–	–	–	–	–
Cc1coc(NC(=O)c2ccnc(-c3ccc(Cl)c(Cl)c3)c2)n1 [Compound 14, 2-(3,4-Dichlorophenyl)-N-(4-methyloxazol-2-yl)isonicotinamide]	–	0.25 (≈ 0.718 µM)	0.06 (≈ 0.172 µM)	–	–	–	–	–	–	–	0.06 (≈ 0.172 µM)	0.25 (≈ 0.718 µM)
O=C(Nc1ncco1)c1ccnc(OCC(F)(F)F)c1 [Compound 64, N-(Oxazol-2-yl)-2-(2,2,2-trifluoroethoxy)isonicotinamide]	–	8 (≈ 27.9 µM)	8 (≈ 27.9 µM)	4 (≈ 13.9 µM)	2 (≈ 6.96 µM)	2	–	–	–	–	–	–
O=C(Nc1nc2ccccc2o1)c1ccnc(-c2ccc(Cl)c(Cl)c2)c1 [Compound 21, N-(benzo[d]oxazol-2-yl)-2-(3,4-dichlorophenyl)isonicotinamide]	–	16 (≈ 41.6 µM)	16 (≈ 41.6 µM)	–	–	–	–	–	–	–	1 (≈ 2.6 µM)	1 (≈ 2.6 µM)
O=C(Nc1ncco1)c1ccnc(-c2ccc(Cl)cc2)c1 [Compound 32, 2-(4-Chlorophenyl)-N-(oxazol-2-yl)isonicotinamide]	–	2 (≈ 6.67 µM)	1 (≈ 3.34 µM)	1 (≈ 3.34 µM)	0.5 (≈ 1.67 µM)	2	–	–	–	–	–	–
O=C(Nc1ncco1)c1ccnc(-c2cccc(F)c2)c1 [Compound 37, 2-(3-Fluorophenyl)-N-(oxazol-2-yl)isonicotinamide]	–	4 (≈ 14.1 µM)	2 (≈ 7.06 µM)	2 (≈ 7.06 µM)	1 (≈ 3.53 µM)	2	–	–	–	–	–	–
O=C(Nc1ncco1)c1ccnc(-c2ccc(Cl)c(F)c2)c1 [Compound 39, 2-(4-Chloro-3-fluorophenyl)-N-(oxazol-2-yl)isonicotinamide]	–	0.5 (≈ 1.57 µM)	0.25 (≈ 0.787 µM)	0.0625 (≈ 0.197 µM)	0.125 (≈ 0.393 µM)	0.5	–	–	–	–	–	–
O=C(Nc1ncco1)c1ccnc(-c2ccc(F)c(Cl)c2)c1 [Compound 40, 2-(3-Chloro-4-fluorophenyl)-N-(oxazol-2-yl)isonicotinamide]	–	1 (≈ 3.15 µM)	0.5 (≈ 1.57 µM)	0.25 (≈ 0.787 µM)	0.25 (≈ 0.787 µM)	1	–	–	–	–	–	–
O=C(Nc1ncco1)c1cc(-c2ccc(Cl)c(Cl)c2)ncc1F [Compound 70, 2-(3,4-Dichlorophenyl)-5-fluoro-N-(oxazol-2-yl)isonicotinamide]	–	0.5 (≈ 1.42 µM)	0.25 (≈ 0.71 µM)	0.0625 (≈ 0.177 µM)	0.125 (≈ 0.355 µM)	0.5	–	–	–	–	–	–
